In patent US20260108483A1, “METHODS AND COMPOSITIONS FOR PREVENTING THE PROGRESSION OF DIABETIC RETINOPATHY AND RELATED CONDITIONS” (Opus Genetics, Inc., priority 2023, published 2026):

Experiment: Clinical study safety: systolic blood pressure
Format: in vivo, human
Conditions: combined placebo + Compound 1 patients; for Mean Systolic Blood Pressure: Baseline 136.9
Description: The study was configured as a placebo-controlled, double-masked, randomized, Phase 2 study in approximately 100 subjects with moderately severe to severe NPDR (diabetic retinopathy severity score [DRSS] Level 47 or 53, see FIG. 1) or mild PDR (DRSS Level 61), evaluating safety and efficacy following administration of Compound 1 twice daily for 24 weeks. The study was configured for a 1:1 randomization (placebo: Compound 1). Randomization was stratified by level of disease severity (NPDR or PDR). Subjects with mild PDR were capped at 20% for each arm. Efficacy evaluations at 12 and/or 24 weeks included DRSS, center-involved diabetic macular edema (DME), moderate PDR or PDR-related adverse events (AEs), best-corrected visual acuity (BCVA), and central subfield thickness (CST). Further experimental procedures and results are described below.
At the Qualification/Baseline (Visit 2, Day 1): • The subject was randomized into the study. • Study medication was dispensed in accordance with the subjects randomized treatment arm. • Blood samples were drawn pre-dose for baseline levels and on Visit 9 (Week 24) for exploratory biomarker processing (i.e., cytokine and Ref-1 levels) to evaluate pharmacodynamic properties. • Subjects were instructed to administer their study medication (Compound 1 or placebo) each day, with 3 tablets every morning and 2 tablets every evening. Study medication was to be taken at approximately the same time each day and may be taken with or without food.
At the Second Treatment Visit (Visit 6, Week 12±2 Days), subjects were to return to the site for the following series of safety and efficacy assessments: drug accountability, concomitant medications, urine pregnancy test (only for women of childbearing potential), HR/BP/vital signs, BCVA (ETDRS), DRSS, CST (SD-OCT), blood draw for PK, blood chemistry, blood hematology, biomicroscopy, ophthalmoscopy, IOP, eGFR, and AEs. Following the completion of the assessments, used medication kits were collected for accountability (by counting the number of unused tablets), and new study medication kits dispensed.
At the Third Treatment Visit (Visit 9, Week 24±2 Days), subjects were to return to the site for the following series of safety and efficacy assessments: drug accountability, concomitant medications, urine pregnancy test (only for women of childbearing potential), physical examination, HR/BP/vital signs, BCVA (ETDRS), DRSS, CST (SD-OCT), blood chemistry, blood hematology, biomicroscopy, ophthalmoscopy, IOP, eGFR, AEs, and blood draw for exploratory biomarkers (ELISA, cytokine panel, comprehensive metabolic panel). Visit 9 (Week 24) was the end of the treatment period. Study medication was returned for accountability (by counting the number of unused tablets), and no further study medication dispensed.
Safety endpoints include: • Incidence and severity of systemic and ocular AEs, • Change from baseline in body system assessments, • Change from baseline in vital sign measurements, • Change from baseline in clinical laboratory assay results (blood chemistry, hematology), • Change from baseline in intraocular pressure (IOP), • Change from baseline in slit-lamp examination parameters, • Change from baseline in dilated funduscopic examination parameters, • Percent of subjects with a decrease of ≥10 letters in BCVA compared to baseline at Week 12 and Week 24, • Percent of subjects progressing to center-involved DME (eligible for rescue treatment at Week 12 and Week 24), • Percent of subjects with a worsening in DRSS of ≥2 steps in the study eye at Week 12 and Week 24, • Percent of subjects developing anterior segment neovascularization at Week 12 and Week 24, • Percent of subjects rescued (intravitreal anti-VEGF injection, laser PRP, focal/grid laser treatment, or surgery [vitrectomy]) at the discretion of the Investigator at Week 12 and Week 24, and • Change from baseline in estimated glomerular filtration rate (eGFR) at Week 12 and Week 24. […]

In the case of `CCCCCCCCC/C(=C\C1=C(C)C(=O)C(OC)=C(OC)C1=O)C(=O)O` [Compound 1, (E)-2-((4,5-dimethoxy-2-methyl-3,6-dioxocyclohexa-1,4-dien-1-yl)methylene)undecanoic acid], the “Mean Systolic Blood Pressure” value (Week 12, 62 subjects) is reported as 132 mmHg, the “Mean Systolic Blood Pressure” value (Week 24, 27 subjects) is reported as 139.7 mmHg and the “change in mean systolic blood pressure relative to Baseline” value (week 12, 62 subjects) is reported as −4.7 mmHg. For the same compound, the “reduction in mean systolic blood pressure relative to Baseline” value (week 12, 62 subjects) was 3%, the “change in mean systolic blood pressure relative to Baseline” value (week 24, 27 subjects) was −0.7 mmHg and the “reduction in mean systolic blood pressure relative to Baseline” value (week 24, 27 subjects) was 1%.
